How the values were obtained:
ABCF1 [1] = assay: ABCF1 real time RT-PCR in RAW macrophage cell line treated with drugs; format: cell-based, murine
Method: (§1) FIG. 1 illustrates that Escitalopram induces ABCF1 in a Macrophage cell line: RAW macrophages were plated at 1×10^5 cells/well and cultured for 2 days. The cells were incubated with 0.3 mM Escitalopram for 1 hour, and then harvested for total RNA, which was extracted for real time RT-PCR specific for ABCF1 and IL-4. CT values were normalized with CT value for the housekeeping gene from the DMSO control. The difference in the expression after drug treatment is consistent with polarization towards an M2-like phenotype (data were consistent in 3 separate experiments).
FIG. 2 illustrates the effect of psylocibin, psylocin and their analogs on ABCF1 transcription in a macrophage cell line. Briefly, the Macrophage cell line RAW264.7 (ATCC) were grown to 80% confluency in growth media (DMEM+10% FBS+glutamine). Dilutions of psylocibin, psylocin and their analogs were made at desired final concentrations for a Dose response experiment. The concentrations' used for this experiment are: 10 nM, 100 nM, 500 nM for Psilocin, Psylocibin, 4-Acetoxy-N, N-dimthyltryptamine, O-Acetyl Psilocin Fumerate, and 4-acetoxyindole. The cells were incubated for 2 hours and then harvested for total RNA, which was extracted for real time RT-PCR specific for ABCF1. Untreated cells were used as negative control and Escitalopram at 0.3 mM was used as a positive control to activate ABCF1 expression for all the experiments. ES=escitalopram; PSYB=Psylocibin; PSIC=Psilocin; DMT=4-Acetoxy-N, N-dimthyltryptamine; APF=O-Acetyl Psilocin Fumerate, and AOI=4-acetoxyindole.
• 1. Macrophage cell line RAW264.7 (ATCC) were grown to 80% confluency in growth media (DMEM+10% FBS+glutamine). • 2. Dilutions of the drugs were made at desired final concentrations for a Dose response experiment. The concentrations' used for this experiment are: 10 nM, 100 nM, 500 nM for Psilocin, Psylocibin, 4-Acetoxy-N, N-dimthyltryptamine, O-Acetyl Psilocin Fumerate, and 4-acetoxyindole. • 3. A time course response experiment was done for the above stated drugs at concentrations mentioned above (10 nM, 100 nM, 500 nM). The time points chosen were 0, 30 mins, 2 hours and 24 hour. • 4. Untreated cells were used as negative control and Escitalopram at 0.3 mM was used as a positive control to activate ABCF1 expression for all the experiments. Analysis by qPCR:
• 1. Post treatment with drugs at different time points, the reaction was stopped by removing the media with the drug. Cells were then collected and RNA was isolated from these. • 2. After checking the quality of the RNA, cDNA was generated and qPCR was run with ABCF1 primers as the target gene and GAPDH as the house keeping gene. • 3. Normalized against the expression level of GAPDH, the fold change expression level of ABCF1 was calculated and tabulated for all treatment conditions.

ABCF1 [2] = assay: ABCF1 expression in bone marrow after in vivo drug treatment of mice; parameters: species or system mice (C57Bl/6); details: for ABCF1 expression levels increased in bone marrow (fold): 30 mins treatment in vivo
Method: • Species strain: C57Bl/6 • Tissues collected: Brain, Bone marrow, PBMC • Drug treatment: • a. 30 minutes Drug treatment (PBS control, Escitalopram 50 mg/kg, Psilocybin 25 mg/kg) • b. 30 minutes Drug treatment after 30 minutes LPS stimulation (PBS control, Escitalopram 50 mg/kg, O-Acetyl Psilocin Fumarate (APF) 25 mg/kg, 4-AcetoxyIndole (AOI) 2.5 mg/kg, 4-AcO-DET (AODET) 25 mg/kg) • Method: • Weighed and injected the drug into the mice by Intraperitoneal injection. • Euthanized the mice 30 minutes after injections with isoflurane and CO2 • Post cervical Dislocation performed cardiac puncture to collect the whole blood from mice. • Opened the cephalic bone to collect the whole brain. • Removed the skin and muscles, took out both femur and tibia for bone marrow collection. • Tissue process procedures: • Brain—flash frozen and stored hemisphere in-80 for further molecular experiments and sent another part with buffer for sequencing. The frozen Brains were Dounce-homogenized. […]

IL-4 = IL-4 real time RT-PCR in RAW macrophages treated with Escitalopram; format: cell-based, murine; details: FIG. 1: 0.3 mM Escitalopram for 1 hour
Method: as §1

ABCF1 [3] = assay: ABCF1 expression in whole brain after in vivo drug treatment of mice; parameters: species or system mice (C57Bl/6); details: Escitalopram 50 mg/kg, psilocybin 25 mg/kg, 30 minutes
ABCF1 [4] = details: peripheral blood mononuclear cells of patients; cited from earlier work

Row | SMILES | ABCF1 expression levels increased (fold) (ABCF1 [1]; RAW264.7 cells, post 2 hr treatment with 100 nM) | ABCF1 expression in the bone marrow (ABCF1 [2]; Escitalopram 50 mg/kg, psilocybin 25 mg/kg, mice, 30 minutes) | ABCF1 expression levels increased in bone marrow (fold) (ABCF1 [2]) | IL-4 induction (fold) in the macrophage cell line (IL-4) | ABCF1 expression in the whole brain (ABCF1 [3]) | ABCF1 expression in RAW macrophages cell cultures (ABCF1 [1]; Escitalopram 0.6 nM, Psilocybin 500 nM, 2 hrs, vs untreated control) | ABCF1 induction in a macrophage cell line (ABCF1 [1]; RAW macrophages, 0.3 mM Escitalopram, 1 hour) | ABCF1 induction (fold) in the macrophage cell line (ABCF1 [1]; RAW macrophages, FIG. 1: 0.3 mM Escitalopram for 1 hour) | ABCF1 transcription in PBMCs of patients responding to treatment (ABCF1 [4])
1 | CCCCCc1cc(O)c(C/C=C(\C)CCC=C(C)C)c(O)c1 [Cannabigerol] | 8 folds | – | – | – | – | – | – | – | –
2 | CN(C)CCC[C@@]1(c2ccc(F)cc2)OCc2cc(C#N)ccc21 [Escitalopram] | – | induces ABCF1 expression | 6 folds | approximately 5 fold | induce ABCF1 expression | induces ABCF1 expression | induces ABCF1 | approximately 20 fold | increased the transcription
3 | CN(C)CCc1c[nH]c2cccc(OP(=O)(O)O)c12 [Psilocybin, [3-(2-Dimethylaminoethyl)-1H-indol-4-yl] dihydrogen phosphate] | – | – | 2 folds | – | – | – | – | – | –

Reference: patent publication US20250090554A1, “A METHOD OF TREATING DEPRESSION BY IMMUNE MODULATION” (MYND LIFE SCIENCES INC., priority 2021, published 2025)
